In data set [1] the target is T1, ABCG2 (BCRP/MXR) (Homo sapiens, UniProt Q9UNQ0).
T1 sequence (Q9UNQ0 1-655): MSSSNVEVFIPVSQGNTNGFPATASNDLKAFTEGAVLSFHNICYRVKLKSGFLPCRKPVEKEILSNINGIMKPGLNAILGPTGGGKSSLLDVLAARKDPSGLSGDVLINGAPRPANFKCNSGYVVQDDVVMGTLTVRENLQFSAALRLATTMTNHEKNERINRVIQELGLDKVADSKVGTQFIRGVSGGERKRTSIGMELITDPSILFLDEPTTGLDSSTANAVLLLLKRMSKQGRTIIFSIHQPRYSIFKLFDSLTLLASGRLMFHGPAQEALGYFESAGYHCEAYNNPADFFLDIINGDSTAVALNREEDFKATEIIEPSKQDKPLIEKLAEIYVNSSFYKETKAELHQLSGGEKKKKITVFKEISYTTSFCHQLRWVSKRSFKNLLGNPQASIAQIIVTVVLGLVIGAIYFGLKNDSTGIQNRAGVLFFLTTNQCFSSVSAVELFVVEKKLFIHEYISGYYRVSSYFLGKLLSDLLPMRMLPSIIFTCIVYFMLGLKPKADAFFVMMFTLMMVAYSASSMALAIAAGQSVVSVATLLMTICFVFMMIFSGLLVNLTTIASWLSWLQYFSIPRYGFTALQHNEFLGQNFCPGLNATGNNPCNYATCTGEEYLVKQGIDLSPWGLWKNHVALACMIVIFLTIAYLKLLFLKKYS
The data set can be described thus: competition of […]-IAAP photoaffinity labeling in membranes; also effect on vanadate-sensitive ATPase activity. Format: binding. Set-up: Crude membranes from High Five insect cells expressing ABCG2.

Data set [2] concerns the target T1, ABCG2 (BCRP/MXR). The data set can be described thus: reversal of mitoxantrone resistance in ABCG2-transfected versus mock HEK293 cells (MTT), […]. Format: cell-based. Set-up: HEK293/ABCG2-R2 stably transfected cells.

Results on 2 compounds are retold here after article PMC4792582, “Effect of ceritinib (LDK378) on enhancement of chemotherapeutic agents in ABCB1 and ABCG2 overexpressing cells in vitro and in vivo” (Oncotarget, 2015).

In the case of `Cc1cc(Nc2ncc(Cl)c(Nc3ccccc3S(=O)(=O)C(C)C)n2)c(OC(C)C)cc1C1CCNCC1` [Ceritinib, 5-chloro-N2-(2-isopropoxy-5-methyl-4-(piperidin-4-yl)phenyl)-N4-(2-(isopropylsulfonyl)phenyl)pyrimidine-2,4-diamine], on ABCG2 (BCRP/MXR) [1], the “competition of [125I]-IAAP photoaffinity labeling in membranes; also effect on v” value was “ceritinib binds with high affinity to both the ABCB1 and ABCG2 substrate-binding sites”.
Regarding `COc1ccc2c3c([nH]c2c1)[C@H](C=C(C)C)N1C(=O)[C@@H]2CCCN2C(=O)[C@@H]1C3` [Fumitremorgin C], the “(fold-reversal) / HEK293/ABCB1” value on ABCG2 (BCRP/MXR) [2] is reported as 26.81 fold-reversal.
